Results published in the supplement of paper PMC10307832.

Columns and labels:
Assay in all cases: relative viability (nuclei count vs DMSO), 5 days (fraction); higher = more cells survive
Dinaciclib + Bortezomib = compound: CCc1cnn2c(NCc3ccc[n+]([O-])c3)cc(N3CCCC[C@H]3CCO)nc12 [Dinaciclib] + CC(C)C[C@H](NC(=O)[C@H](Cc1ccccc1)NC(=O)c1cnccn1)B(O)O [Bortezomib] (partner 0.002 µM)
Summary of the method: (§1)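 Values are medians from duplicate plates. Each reflects relative viability, defined as the nuclei count of treated wells over that of vehicle wells. Lung cancer cell lines in 1536-well plates were pin-tool dosed one day after seeding with one drug alone or with a fixed anchor-drug dose plus five library-drug doses (not always all listed) in √10 steps, then fixed, stained and imaged at 4× after 5 days.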

Dinaciclib + Palbociclib = compound: CCc1cnn2c(NCc3ccc[n+]([O-])c3)cc(N3CCCC[C@H]3CCO)nc12 [Dinaciclib] + CC(=O)c1c(C)c2cnc(Nc3ccc(N4CCNCC4)cn3)nc2n(C2CCCC2)c1=O [Palbociclib] (partner 0.5 µM)
Summary of the method: as §1

Dinaciclib + Pemetrexed = compound: CCc1cnn2c(NCc3ccc[n+]([O-])c3)cc(N3CCCC[C@H]3CCO)nc12 [Dinaciclib] + Nc1nc2[nH]cc(CCc3ccc(C(=O)N[C@@H](CCC(=O)O)C(=O)O)cc3)c2c(=O)[nH]1 [Pemetrexed] (partner 0.2 µM)
Summary of the method: as §1

Dinaciclib + Tozasertib = compound: CCc1cnn2c(NCc3ccc[n+]([O-])c3)cc(N3CCCC[C@H]3CCO)nc12 [Dinaciclib] + Cc1cc(Nc2cc(N3CCN(C)CC3)nc(Sc3ccc(NC(=O)C4CC4)cc3)n2)n[nH]1 [Tozasertib] (partner 0.1 µM)
Summary of the method: as §1

Dinaciclib + OSI-027 = compound: CCc1cnn2c(NCc3ccc[n+]([O-])c3)cc(N3CCCC[C@H]3CCO)nc12 [Dinaciclib] + COc1cccc2cc(-c3nc([C@H]4CC[C@H](C(=O)O)CC4)n4ncnc(N)c34)[nH]c12 [OSI-027] (partner 0.5 µM)
Summary of the method: as §1

Cell Line | relative viability (Dinaciclib + Bortezomib; first compound 0.009487 µM) | relative viability (Dinaciclib + Bortezomib; first compound 0.03 µM) | relative viability (Dinaciclib + Bortezomib; first compound 0.09487 µM) | relative viability (Dinaciclib + Bortezomib; first compound 0.3 µM) | relative viability (Dinaciclib + Palbociclib; first compound 0.009487 µM) | relative viability (Dinaciclib + Palbociclib; first compound 0.03 µM) | relative viability (Dinaciclib + Palbociclib; first compound 0.09487 µM) | relative viability (Dinaciclib + Palbociclib; first compound 0.3 µM) | relative viability (Dinaciclib + Pemetrexed; first compound 0.009487 µM) | relative viability (Dinaciclib + Pemetrexed; first compound 0.03 µM) | relative viability (Dinaciclib + Pemetrexed; first compound 0.09487 µM) | relative viability (Dinaciclib + Pemetrexed; first compound 0.3 µM) | relative viability (Dinaciclib + Tozasertib; first compound 0.009487 µM) | relative viability (Dinaciclib + Tozasertib; first compound 0.03 µM) | relative viability (Dinaciclib + Tozasertib; first compound 0.09487 µM) | relative viability (Dinaciclib + Tozasertib; first compound 0.3 µM) | relative viability (Dinaciclib + OSI-027; first compound 0.009487 µM) | relative viability (Dinaciclib + OSI-027; first compound 0.03 µM) | relative viability (Dinaciclib + OSI-027; first compound 0.09487 µM) | relative viability (Dinaciclib + OSI-027; first compound 0.3 µM)
HCC-366 | 0.779 | 0.0262 | 0.0219 | 0.0175 | 0.272 | 0.0382 | 0.0205 | 0.0359 | 0.171 | 0.0414 | 0.0345 | 0.0329 | 0.136 | 0.0294 | 0.0259 | 0.0198 | 0.924 | 0.0747 | 0.0323 | 0.0369
NCI-H1651 | 0.96 | 0.763 | 0.25 | 0.0931 | 0.519 | 0.383 | 0.148 | 0.0571 | 0.596 | 0.51 | 0.112 | 0.0533 | 0.633 | 0.58 | 0.0798 | 0.0626 | 0.694 | 0.53 | 0.163 | 0.0729
LC-2-ad | 1.05 | 0.0825 | 0.0622 | 0.0691 | 0.411 | 0.204 | 0.114 | 0.136 | 0.28 | 0.158 | 0.14 | 0.131 | 0.363 | 0.242 | 0.19 | 0.219 | 0.58 | 0.251 | 0.247 | 0.227
HCC-827 | 0.986 | 0.746 | 0.213 | 0.178 | 0.387 | 0.169 | 0.14 | 0.121 | 0.27 | 0.129 | 0.122 | 0.13 | 0.417 | 0.251 | 0.101 | 0.117 | 0.887 | 0.565 | 0.129 | 0.116
SK-LU-1 | 1.09 | 0.17 | 0.188 | 0.193 | 0.393 | 0.229 | 0.17 | 0.165 | 0.97 | 0.226 | 0.229 | 0.185 | 0.329 | 0.132 | 0.131 | 0.119 | 0.425 | 0.116 | 0.145 | 0.112
COR-L 105 | 0.61 | 0.192 | 0.219 | 0.212 | 0.414 | 0.311 | 0.296 | 0.309 | 0.91 | 0.291 | 0.348 | 0.295 | 0.369 | 0.304 | 0.25 | 0.208 | 0.51 | 0.232 | 0.224 | 0.234
LOU-NH91 | 0.4 | 0.345 | 0.287 | 0.281 | 0.508 | 0.307 | 0.268 | 0.273 | 0.443 | 0.276 | 0.256 | 0.234 | 0.656 | 0.305 | 0.178 | 0.174 | 0.787 | 0.543 | 0.227 | 0.222
NCI-H661 | 0.774 | 0.155 | 0.167 | 0.186 | 0.431 | 0.188 | 0.14 | 0.153 | 0.798 | 0.365 | 0.214 | 0.151 | 0.339 | 0.183 | 0.199 | 0.18 | 0.637 | 0.163 | 0.168 | 0.168
LU99A | 0.645 | 0.134 | 0.135 | 0.122 | 0.383 | 0.124 | 0.138 | 0.106 | 0.205 | 0.16 | 0.132 | 0.137 | 0.247 | 0.142 | 0.143 | 0.148 | 0.284 | 0.202 | 0.153 | 0.144
NCI-H1650 | 0.172 | 0.178 | 0.158 | 0.142 | 0.343 | 0.0912 | 0.115 | 0.0963 | 0.366 | 0.335 | 0.152 | 0.0974 | 0.363 | 0.176 | 0.119 | 0.147 | 0.426 | 0.15 | 0.136 | 0.123
SW 1573 | 0.777 | 0.104 | 0.0824 | 0.0954 | 0.218 | 0.0747 | 0.0634 | 0.0773 | 0.345 | 0.0723 | 0.07 | 0.0635 | 0.141 | 0.0738 | 0.0542 | 0.0806 | 0.372 | 0.0612 | 0.0644 | 0.0645
HOP-62 | 0.643 | 0.0795 | 0.0423 | 0.0609 | 0.465 | 0.187 | 0.071 | 0.0775 | 0.255 | 0.0991 | 0.094 | 0.0662 | 0.293 | 0.13 | 0.0833 | 0.075 | 0.72 | 0.446 | 0.139 | 0.0825
UMC-11 | 0.196 | 0.107 | 0.108 | 0.131 | 0.29 | 0.173 | 0.177 | 0.167 | 0.411 | 0.18 | 0.189 | 0.146 | 0.2 | 0.215 | 0.202 | 0.173 | 0.267 | 0.203 | 0.177 | 0.153
LCLC-103H | 1.04 | 0.998 | 0.451 | 0.108 | 0.402 | 0.441 | 0.208 | 0.192 | 0.465 | 0.566 | 0.223 | 0.217 | 0.487 | 0.315 | 0.0924 | 0.0865 | 0.451 | 0.483 | 0.111 | 0.109
NCI-H1734 | 0.644 | 0.148 | 0.121 | 0.116 | 0.26 | 0.135 | 0.122 | 0.126 | 0.417 | 0.147 | 0.149 | 0.136 | 0.208 | 0.13 | 0.133 | 0.111 | 0.471 | 0.13 | 0.11 | 0.116
